The source of these data is US20090069419A1, “MASKED CARBOXYLATE NEOPENTYL SULFONYL ESTER CYCLIZATION RELEASE PRODRUGS OF ACAMPROSATE, COMPOSITIONS THEREOF, AND METHODS OF USE” (priority 2007, published 2009).

The conditions of data set [1]: doses of about 1-2 gm per day, cited from earlier work.
The next data set has as its system cocaine conditioned mice. Conditions: 100 mg/kg for 3 days; cited from earlier work.
For data set [2] the following is noted: cited from earlier work.

The structures appear in SMILES notation.

For `CC(=O)NCCCS(=O)(=O)OCC(C)(C)CCC(=O)O` [Compound 28, 5-{[3-(Acetylamino)propyl]sulfonyloxy}-4,4-dimethylpentanoic Acid], the melting point (as a rule, the temperature of the solid-liquid transition) was 105.3 to 124.9 °C.

Turning to `CC(=O)NCCCS(=O)(=O)O` [acamprosate, 3-(Acetylamino)propylsulfonic acid], the steady-state plasma concentration in data set [1] was 370 to 640 ng/mL. For the same compound, in data set [1] (post-dose), the “time at which steady-state plasma concentration occurs” value was 3 to 8 h. In the data set on cocaine conditioned mice, the relapse-like behavior entry was “attenuated relapse-like behavior”. In addition, the mean elimination half-life in data set [2] (following intravenous infusion (15 min)) was 3.2 ± 0.2 h. Moreover, the oral bioavailability entry in data set [2] (humans, oral) is “about 11%”.
